{"source": "BindingDB's records for doi:10.1016/j.bmc.2016.01.035", "about": "(Tohoku Pharmaceutical University, 2016)", "assay": "Agonist activity at ERalpha in human MCF7 cells assessed as induction of cell proliferation incubated for 5 days by WST-8 assay", "note": "pEC50: −log10 of the molar value.", "data": [{"smiles": "CC(=O)N1C(C)(C)CC(=C(c2ccc(O)cc2)c2ccc(O)cc2)CC1(C)C", "values": [{"measurement": "pEC50", "value": 9.66}]}]}
